Laboratory results reported in US10681909B2, “Herbicidal triazoles” (FMC Corporation, priority 2014, dated 2020).

Experiments:
kochia = assay: Test A postemergence; format: in vivo, Kochia scoparia; settings: 0 to 100 scale (0 no effect, 100 complete control), approx. 10 d
Outline: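 Visual 0–100 ratings (0 no effect, 100 complete control) made roughly 10 days after treatment, comparing greenhouse-grown plants to untreated controls. Formulated test chemicals, with surfactant, went either as directed soil spray at planting or onto 2–10 cm seedlings bearing one to two leaves.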

wheat (winter wheat) = assay: Test C preemergence; format: in vivo, Triticum aestivum; settings: for Wheat plant response rating (0 to 100): Preemergence, visual rating after 13 to 15 d; for Plant response rating (scale of 0 to 100 where 0 is no effect and 100 is complete control): Wheat, preemergence, 250 g ai/ha
Excerpt: Seeds of plant species selected from blackgrass (Alopecurus myosuroides), ryegrass, Italian (Italian ryegrass, Lolium multiflorum), wheat (winter wheat, Triticum aestivum), galium (catchweed bedstraw, Galium aparine), corn (Zea mays), crabgrass, large (large crabgrass, Digitaria sanguinalis), foxtail, giant, (giant foxtail, Setaria faberii), johnsongrass (Sorghum halepense), lambsquarters (Chenopodium album), morningglory (Ipomoea coccinea), nutsedge, yellow (yellow nutsedge, Cyperus esculentus), pigweed (Amaranthus retroflexus), ragweed (common ragweed, Ambrosia elatior), soybean (Glycine max), barnyardgrass (Echinochloa crus-galli), oilseed rape (Brassica napus), waterhemp (common waterhemp, Amaranthus rudis), and velvetleaf (Abutilon theophrasti) were planted into a blend of loam soil and sand and treated preemergence with test chemicals formulated in a non-phytotoxic solvent mixture which included a surfactant. At the same time, plants selected from these crop and weed species and also chickweed (common chickweed, Stellaria media), oat, wild (wild oat, Avena fatua), and kochia (Kochia scoparia), were planted in pots containing Sunshine Redi-Earth® planting medium comprising spaghnum peat moss, vermiculite, starter nutrients and dolomitic limestone and treated with postemergence applications of test chemicals formulated in the same manner. Plants ranged in height from 2 to 18 cm (1- to 4-leaf stage) for postemergence treatments. […] A dash (-) response means no test result.

field poppy = assay: Test D preemergence; format: in vivo, Papaver rhoeas; settings: for Plant response rating (0 to 100), Field Poppy: 16 g ai/ha, 0 is no effect, 100 is complete control; for Plant response rating: Field Poppy: scale 0 to 100
Excerpt: (§1) Seeds of plant species selected from bluegrass (annual bluegrass, Poa annua), blackgrass (Alopecurus myosuroides), canarygrass (Phalaris minor), chickweed (common chickweed, Stellaria media), galium (catchweed bedstraw, Galium aparine), bromegrass, down (downy bromegrass, Bromus tectorum), Russian thistle (Salsola kali), field poppy (Papaver rhoeas), field violet (Viola arvensis), foxtail, green (green foxtail, Setaria viridis), deadnettle (henbit deadnettle, Lamium amplexicaule), ryegrass, Ital. (Italian ryegrass, Lolium multiflorum), kochia (Kochia scoparia), lambsquarters (Chenopodium album), oilseed rape (Brassica napus), pigweed (Amaranthus retroflexus), chamomile (scentless chamomile, Matricaria inodora), speedwell (bird's-eye speedwell, Veronica persica), barley, spring (spring barley, Hordeum vulgare), wheat, spring (spring wheat, Triticum aestivum), buckwheat, wild (wild buckwheat, Polygonum convolvulus), wild mustard (Sinapis arvensis), oat, wild (wild oat, Avena fatua), radish, wild (wild radish, Raphanus raphanistrum), […]), barley, winter (winter barley, Hordeum vulgare), and wheat, winter (winter wheat, Triticum aestivum) were planted into a silt loam soil and treated preemergence with test chemicals formulated in a non-phytotoxic solvent mixture which included a surfactant. At the same time, these species were planted in pots containing Sunshine Redi-Earth® planting medium comprising spaghnum peat moss, vermiculite, starter nutrients and dolomitic limestone and treated with postemergence applications of the test chemicals formulated in the same manner. Plants ranged in height from 2 to 18 cm (1- to 4-leaf stage). Treated plants and controls were maintained in a controlled growth environment for 14 to 21 d after which time all species were compared to controls and visually evaluated. […] A dash (-) response means no test result.

field violet = assay: Test D preemergence; format: in vivo, Viola arvensis; settings: for Plant response rating (0 to 100), Field Violet: 16 g ai/ha, 0 is no effect, 100 is complete control; for Plant response rating: Field Violet: scale 0 to 100
Excerpt: as §1

ryegrass, Ital. = assay: Test D preemergence; format: in vivo, Lolium multiflorum; settings: for Plant response rating (0 to 100), Ryegrass, Ital.: 16 g ai/ha, 0 is no effect, 100 is complete control; for Plant response rating: Ryegrass, Ital.: scale 0 to 100
Excerpt: as §1

chamomile = assay: Test D preemergence; format: in vivo, Matricaria inodora; settings: for Plant response rating (0 to 100), Chamomile: 16 g ai/ha, 0 is no effect, 100 is complete control; for Plant response rating: Chamomile: scale 0 to 100
Excerpt: as §1

wheat, spring = assay: Test D preemergence; format: in vivo, Triticum aestivum; settings: for Plant response rating (0 to 100), Wheat, Spring: 16 g ai/ha, 0 is no effect, 100 is complete control; for Plant response rating: Wheat, Spring: scale 0 to 100
Excerpt: as §1

wheat, winter = assay: Test D preemergence; format: in vivo, Triticum aestivum; settings: for Plant response rating (0 to 100), Wheat, Winter: 16 g ai/ha, 0 is no effect, 100 is complete control; for Plant response rating: Wheat, Winter: scale 0 to 100
Excerpt: as §1

oat, wild = assay: Test D preemergence; format: in vivo, Avena fatua; settings: for Plant response rating (0 to 100), Oat, Wild: 16 g ai/ha, 0 is no effect, 100 is complete control; for Plant response rating: Oat, Wild: scale 0 to 100
Excerpt: as §1

radish, wild = assay: Test D preemergence; format: in vivo, Raphanus raphanistrum; settings: for Plant response rating (0 to 100), Radish, Wild: 16 g ai/ha, 0 is no effect, 100 is complete control; for Plant response rating: Radish, Wild: scale 0 to 100
Excerpt: as §1

chickweed = assay: Test D postemergence; format: in vivo, Stellaria media; settings: scale 0 to 100
Excerpt: as §1

Compound | Plant response rating, Kochia (kochia; 125 g ai/ha) | Plant response rating, Kochia (kochia; 500 g ai/ha) | Wheat plant response rating (0 to 100) (wheat (winter wheat); 31 g ai/ha) | Wheat plant response rating (0 to 100) (wheat (winter wheat); 62 g ai/ha) | Plant response rating (scale of 0 to 100 where 0 is no effect and 100 is complete control) (wheat (winter wheat)) | Plant response rating (0 to 100), Field Poppy (field poppy) | Plant response rating: Field Poppy (field poppy; 62 g ai/ha) | Plant response rating: Field Poppy (field poppy; 125 g ai/ha) | Plant response rating (0 to 100), Field Violet (field violet) | Plant response rating: Field Violet (field violet; 62 g ai/ha) | Plant response rating: Field Violet (field violet; 125 g ai/ha) | Plant response rating (0 to 100), Ryegrass, Ital. (ryegrass, Ital.) | Plant response rating: Ryegrass, Ital. (ryegrass, Ital.; 62 g ai/ha) | Plant response rating: Ryegrass, Ital. (ryegrass, Ital.; 125 g ai/ha) | Plant response rating (0 to 100), Chamomile (chamomile) | Plant response rating: Chamomile (chamomile; 31 g ai/ha) | Plant response rating: Chamomile (chamomile; 62 g ai/ha) | Plant response rating: Chamomile (chamomile; 125 g ai/ha) | Plant response rating (0 to 100), Wheat, Spring (wheat, spring) | Plant response rating: Wheat, Spring (wheat, spring; 62 g ai/ha) | further results
FC(F)(F)COc1nc(-c2ccccc2)nn1Cc1ccnc(C(F)(F)F)c1 [Compound 24] | 90 | 90 | 0 | 0 | 5 | 95 | 100 | 100 | 0 | 80 | 100 | 40 | 40 | 45 | 0 | 35 | 85 | 90 | 15 | 25 | Plant response rating: Wheat, Spring (wheat, spring; 125 g ai/ha): 15; Plant response rating (0 to 100), Wheat, Winter (wheat, winter): 15; Plant response rating: Wheat, Winter (wheat, winter; 62 g ai/ha): 20; Plant response rating: Wheat, Winter (wheat, winter; 125 g ai/ha): 20; Plant response rating (0 to 100), Oat, Wild (oat, wild): 30; Plant response rating: Oat, Wild (oat, wild; 62 g ai/ha): 30; Plant response rating: Oat, Wild (oat, wild; 125 g ai/ha): 35; Plant response rating (0 to 100), Radish, Wild (radish, wild): 45; Plant response rating: Radish, Wild (radish, wild; 62 g ai/ha): 75; Plant response rating: Radish, Wild (radish, wild; 125 g ai/ha): 100; Plant response rating: Chickweed (chickweed; 16 g ai/ha): 55; Plant response rating: Chickweed (chickweed; 31 g ai/ha): 60; Plant response rating: Chickweed (chickweed; 62 g ai/ha): 70; Plant response rating: Chickweed (chickweed; 125 g ai/ha): 90
CCOc1nc(-c2ccccc2)nn1Cc1ccnc(C(F)(F)F)c1 [Compound 27] | 90 | 90 | 20 | 25 | 60 | 95 | 100 | 100 | 85 | 98 | 100 | 25 | 65 | 75 | 10 | 90 | 100 | 100 | 15 | 20 | Plant response rating: Wheat, Spring (wheat, spring; 125 g ai/ha): 35; Plant response rating (0 to 100), Wheat, Winter (wheat, winter): 25; Plant response rating: Wheat, Winter (wheat, winter; 62 g ai/ha): 30; Plant response rating: Wheat, Winter (wheat, winter; 125 g ai/ha): 30; Plant response rating (0 to 100), Oat, Wild (oat, wild): 25; Plant response rating: Oat, Wild (oat, wild; 62 g ai/ha): 45; Plant response rating: Oat, Wild (oat, wild; 125 g ai/ha): 75; Plant response rating (0 to 100), Radish, Wild (radish, wild): 75; Plant response rating: Radish, Wild (radish, wild; 62 g ai/ha): 85; Plant response rating: Radish, Wild (radish, wild; 125 g ai/ha): 100; Plant response rating: Chickweed (chickweed; 16 g ai/ha): 85; Plant response rating: Chickweed (chickweed; 31 g ai/ha): 95; Plant response rating: Chickweed (chickweed; 62 g ai/ha): 100; Plant response rating: Chickweed (chickweed; 125 g ai/ha): 100
Fc1ccc(-c2nc(OCC(F)(F)F)n(Cc3ccnc(C(F)(F)F)c3)n2)cc1 [Compound 30] | 90 | 90 | 0 | 0 | 35 | 95 | 100 | 100 | 100 | 100 | 100 | 40 | 55 | 70 | 30 | 40 | 100 | 100 | 25 | 35 | Plant response rating: Wheat, Spring (wheat, spring; 125 g ai/ha): 45; Plant response rating (0 to 100), Wheat, Winter (wheat, winter): 15; Plant response rating: Wheat, Winter (wheat, winter; 62 g ai/ha): 25; Plant response rating: Wheat, Winter (wheat, winter; 125 g ai/ha): 35; Plant response rating (0 to 100), Oat, Wild (oat, wild): 45; Plant response rating: Oat, Wild (oat, wild; 62 g ai/ha): 70; Plant response rating: Oat, Wild (oat, wild; 125 g ai/ha): 80; Plant response rating (0 to 100), Radish, Wild (radish, wild): 65; Plant response rating: Radish, Wild (radish, wild; 62 g ai/ha): 95; Plant response rating: Radish, Wild (radish, wild; 125 g ai/ha): 100; Plant response rating: Chickweed (chickweed; 16 g ai/ha): 70; Plant response rating: Chickweed (chickweed; 31 g ai/ha): 80; Plant response rating: Chickweed (chickweed; 62 g ai/ha): 100; Plant response rating: Chickweed (chickweed; 125 g ai/ha): 100
FC(F)(F)COc1nc(-c2ccc(Cl)cc2)nn1Cc1ccnc(C(F)(F)F)c1 [Compound 31] | 90 | 90 | 0 | 5 | 35 | 95 | 100 | 100 | 95 | 100 | 100 | 40 | 50 | 100 | 30 | 95 | 100 | 100 | 30 | 40 | Plant response rating: Wheat, Spring (wheat, spring; 125 g ai/ha): 45; Plant response rating (0 to 100), Wheat, Winter (wheat, winter): 20; Plant response rating: Wheat, Winter (wheat, winter; 62 g ai/ha): 20; Plant response rating: Wheat, Winter (wheat, winter; 125 g ai/ha): 30; Plant response rating (0 to 100), Oat, Wild (oat, wild): 35; Plant response rating: Oat, Wild (oat, wild; 62 g ai/ha): 55; Plant response rating: Oat, Wild (oat, wild; 125 g ai/ha): 75; Plant response rating: Radish, Wild (radish, wild; 62 g ai/ha): 100; Plant response rating: Radish, Wild (radish, wild; 125 g ai/ha): 100; Plant response rating: Chickweed (chickweed; 16 g ai/ha): 80; Plant response rating: Chickweed (chickweed; 31 g ai/ha): 90; Plant response rating: Chickweed (chickweed; 62 g ai/ha): 100; Plant response rating: Chickweed (chickweed; 125 g ai/ha): 100
